Laboratory results reported in patent publication US20250003900A1, “Micro Magnetic Resonance Relaxometry (MMRR) for Rapid and Non-Invasive Detection of Senescence in Mesenchymal Stem Cells” (Massachusetts Institute of Technology, priority 2021, published 2025).

Assays:
MSCs [1] = assay: Immunofluorescence of proliferation marker EdU and senescence marker γ-H2AX foci in MSCs; format: cell-based; settings: passage 3 MSCs, 1 μM doxorubicin for 24 hours
Protocol: Proliferation and senescence were measured simultaneously in order to correlate cell state directly with the MRR T2 values. MSCs from the same donor were serially passaged to passage 3, passage 5, and passage 6. As a positive control for senescence cells, cells from passage 3 were also treated with doxorubicin (DOX), a chemotherapy agent that produces DNA damage and reactive oxygen species to induce senescence in tumor cells. To measure DNA synthesis, EdU (5-ethynyl-2′-deoxyuridine) was used as an indicator of active cell proliferation (shown in green). In contrast, senescent cells are known to accumulate γ-H2AX foci (indicated in red). The proliferation (Pf) index and senescence (Sn) index were calculated from these images and plotted respectively (FIG. 6C and FIG. 6D). […]
(§1) Bone marrow-derived mesenchymal stem cells (MSC) were purchased from Lonza Pte. […] The cell number was calculated using a disposable hemocytometer (INCYTO, Korea) with the trypan blue exclusion method. […]
For detection of SA-βgal together with another senescence marker (γ-H2AX foci) (Ref. 66) and the proliferation marker, 5-ethynyl-2′-deoxyuridine (Edu) in the cells, the protocol was performed as previously mentioned (Ref. 67). […] Subsequently, Edu labeling was detected following the manufacturer's protocol (Invitrogen). […]

MSCs [2] = assay: μMRR T2 measurement of MSCs with induced senescence; format: cell-based
From the text: Cytokines such as Transforming Growth Factor-β1 (TGFβ1) and interleukin-1 (IL-1) induce senescence in MSCs. TGFβ1 is a TGF family member that controls numerous cellular functions, including proliferation and cell death. (Refs. 51 and 52) IL-1 is a proinflammatory cytokine whose expression is associated with SASP. […] The senescent cells are more in TGF-β1 treated cells than IL-1 treated cells (FIG. 8), which is also confirmed here by its decreased T2 values than IL-1 treated cells.
Since MSCs donors show differences in proliferative ability, it is important to find the limit of detection (LOD) of MRR assay in terms of the cell number. […] Here, the LOD was analyzed by decreasing the concentration of cells even lower to 4 ×10^4, 2×10^4, and 1×10^4 cells for uMRR detection as shown in the FIG. 6H and FIG. 8. […] The batches of 1, 2, and 4 (×10^4 cells) in 4 μl detection volume of TGF-β1 treated and untreated MSCs were analyzed by MRR. […]
as §1
For all MRR experiments, the normalized concentration (3×10^5 cells) of MSCs have used unless otherwise stated. […] Proton transverse relaxation rates T2 were measured by standard Carr-Purcell-Meiboom-Gill (CPMG) pulse programme (Refs. 64 and 65) (FIG. 3B). […]

COc1cccc2c1C(=O)c1c(O)c3c(c(O)c1C2=O)C[C@@](O)(C(=O)CO)C[C@@H]3O[C@H]1C[C@H](N)[C@H](O)[C@H](C)O1 [DOX, doxorubicin]
senescence (Sn) index (γ-H2aX) (MSCs [1]; compared to P3 and P5): more senescent cells | proliferation (Pf) index (MSCs [1]; compared with P3, P5 and P6): lowest

TGFβ1: TGF family member cytokine that induces senescence in MSCs
T2 values of cytokine treated cells (MSCs [2]; MSCs treated with 10 ng and 20 ng/ml cytokine): decreased with increasing cytokine concentrations | senescent cells in TGF-β1 treated cells versus IL-1 treated cells (MSCs [2]; confirmed by decreased T2 values than IL-1 treated cells): more
